What was measured:
HDAC2 = HDAC2 (Homo sapiens, UniProt Q92769); assay: In vitro HDAC inhibition preincubation assay (ZMAL substrate)
HDAC1 [1] = target: T1, HDAC1 (Homo sapiens, UniProt Q13547); assay: IC50-shift experiments (varied preincubation time); type: biochemical; conditions: triplicates
HDAC1 [2] = target: T1, HDAC1; assay: 100-fold Jump-Dilution experiments; type: biochemical; conditions: diluted inhibitor concentration as indicated per compound, vehicle [DMSO 1 %]=111.9
HDAC3 [3] = target: T2, HDAC3 (Homo sapiens, UniProt O15379); assay: Binding kinetics via the Progression Method; type: biochemical; conditions: relationship between kobs and [I]; triplicates
HDAC3 [4] = target: T2, HDAC3; assay: 100-fold Jump-Dilution experiments; type: biochemical; conditions: diluted inhibitor concentration as indicated per compound, vehicle [DMSO 1%] = 56.7
HDAC3 [5] = target: T2, HDAC3; assay: IC50-shift experiments (varied preincubation time); type: biochemical; conditions: triplicates
HDAC1 [6] = target: T1, HDAC1; assay: Binding kinetics via the Progression Method; type: biochemical; conditions: relationship between kobs and [I]; triplicates
physchem = conditions: 1-octanol/PBS buffer (mutually saturated), pH 7.4
HDAC1 [7] = target: T1, HDAC1; assay: In vitro HDAC inhibition preincubation assay (ZMAL substrate)
HDAC3/NcoR2 = HDAC3/NcoR2 (Homo sapiens, UniProt O15379); assay: as above
HDAC3/NcoR2, sequence (O15379 whole entry): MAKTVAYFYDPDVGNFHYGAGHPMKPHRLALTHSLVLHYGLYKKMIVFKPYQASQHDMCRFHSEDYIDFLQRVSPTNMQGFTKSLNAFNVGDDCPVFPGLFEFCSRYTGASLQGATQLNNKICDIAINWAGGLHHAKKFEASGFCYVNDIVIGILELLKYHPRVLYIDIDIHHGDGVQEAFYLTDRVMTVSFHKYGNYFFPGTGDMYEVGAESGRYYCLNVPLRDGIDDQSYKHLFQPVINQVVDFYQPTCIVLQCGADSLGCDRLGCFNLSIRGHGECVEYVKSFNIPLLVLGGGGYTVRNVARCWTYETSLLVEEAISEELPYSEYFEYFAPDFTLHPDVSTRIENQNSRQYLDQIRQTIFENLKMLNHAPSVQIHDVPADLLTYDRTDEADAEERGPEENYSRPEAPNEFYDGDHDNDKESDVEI
HDAC3/NcoR2, sequence (Q9Y618 395-489 partner limits assumed): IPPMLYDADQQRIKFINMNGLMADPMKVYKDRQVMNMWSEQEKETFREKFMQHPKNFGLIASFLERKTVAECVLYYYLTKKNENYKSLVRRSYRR

T2 sequence (O15379 whole entry): as the sequence (O15379 whole entry) above
T2 sequence (Q9Y618 395-489 partner limits assumed): as the sequence (Q9Y618 395-489 partner limits assumed) above
T1 sequence (Q13547 whole entry): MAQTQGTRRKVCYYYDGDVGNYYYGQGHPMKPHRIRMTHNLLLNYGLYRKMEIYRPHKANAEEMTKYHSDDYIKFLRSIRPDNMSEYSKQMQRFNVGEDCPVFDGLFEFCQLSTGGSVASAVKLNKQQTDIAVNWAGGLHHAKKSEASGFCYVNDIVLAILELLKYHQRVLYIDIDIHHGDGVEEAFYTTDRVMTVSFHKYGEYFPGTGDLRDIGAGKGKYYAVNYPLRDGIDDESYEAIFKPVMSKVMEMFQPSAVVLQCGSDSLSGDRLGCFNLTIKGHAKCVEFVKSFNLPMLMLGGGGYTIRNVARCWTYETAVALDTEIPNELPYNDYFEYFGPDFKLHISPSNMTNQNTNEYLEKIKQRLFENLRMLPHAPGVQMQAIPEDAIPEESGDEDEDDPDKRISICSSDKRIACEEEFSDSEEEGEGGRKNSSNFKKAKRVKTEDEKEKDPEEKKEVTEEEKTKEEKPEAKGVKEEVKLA
HDAC2, sequence (Q92769 whole entry): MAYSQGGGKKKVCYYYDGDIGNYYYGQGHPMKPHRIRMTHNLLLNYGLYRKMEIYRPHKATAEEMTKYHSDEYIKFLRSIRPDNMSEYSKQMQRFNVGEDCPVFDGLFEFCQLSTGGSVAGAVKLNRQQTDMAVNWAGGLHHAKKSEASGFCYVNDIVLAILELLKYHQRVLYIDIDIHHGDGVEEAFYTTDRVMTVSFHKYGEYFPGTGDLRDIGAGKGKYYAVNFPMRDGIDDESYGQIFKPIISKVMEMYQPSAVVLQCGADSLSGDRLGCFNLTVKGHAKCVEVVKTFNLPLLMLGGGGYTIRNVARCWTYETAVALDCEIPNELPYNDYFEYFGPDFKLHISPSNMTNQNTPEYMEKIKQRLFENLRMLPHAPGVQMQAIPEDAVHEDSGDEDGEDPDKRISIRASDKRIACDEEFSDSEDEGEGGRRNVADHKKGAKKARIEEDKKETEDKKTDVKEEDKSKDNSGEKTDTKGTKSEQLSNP

IC50 (HDAC2): 128 ± 14.5 nM | IC50 (HDAC1 [1]; HDAC1 IC50, preincubation 5 min, preincubation time 5 min at 20°C): 93 nM | IC50 (HDAC1 [1]; HDAC1 IC50, preincubation 30 min, preincubation time 30 min at 20°C): 57.4 nM | IC50 (HDAC1 [1]; HDAC1 IC50, preincubation 60 min, preincubation time 60 min at 20°C): 48.3 nM | IC50 (HDAC1 [1]; HDAC1 IC50, preincubation 120 min, preincubation time 120 min at 20°C): 35.6 nM | Final slope of progression curve after 100-fold dilution (HDAC1) (HDAC1 [2]): 39.2 RFU*min^−1 | binding mechanism at HDAC3 (HDAC3 [3]): slow-binding Mechanism II | Final slope of progression curve after 100-fold dilution (HDAC3) (HDAC3 [4]): 2.51 RFU*min-1 | IC50 (HDAC3 [5]; HDAC3 IC50, preincubation 5 min, preincubation time 5 min at 20°C): 794 nM | IC50 (HDAC3 [5]; HDAC3 IC50, preincubation 30 min, preincubation time 30 min at 20°C): 432 nM | IC50 (HDAC3 [5]; HDAC3 IC50, preincubation 60 min, preincubation time 60 min at 20°C): 299 nM | IC50 (HDAC3 [5]; HDAC3 IC50, preincubation 120 min, preincubation time 120 min at 20°C): 171 nM | binding mechanism at HDAC1 (HDAC1 [6]): slow‐binding Mechanism II | logD at 48 h (physchem): 3.19 | IC50 (HDAC1 [7]): 68.6 ± 10.4 nM | IC50 (HDAC3/NcoR2): 310 ± 7.8 nM
Structure (SMILES): CN(C)c1ccc(C(=O)N(CC(=O)NCc2ccccc2)Cc2ccc(C(=O)Nc3ccccc3N)cc2)cc1 [VK‐1, reference compound]

— publication PMC9303312, “Balancing Histone Deacetylase (HDAC) Inhibition and Drug‐likeness: Biological and Physicochemical Evaluation of Class I Selective HDAC Inhibitors” (Chemmedchem, 2022)
